According to PMC10341549, “Inhibitory Investigations of Acyl-CoA Derivatives against Human Lipoxygenase Isozymes” (International Journal of Molecular Sciences, 2023):

Assays:
[1] = biological target: T1, h15-LOX-1 (Homo sapiens, UniProt P16050); experiment: IC50 determination against h15-LOX-1; format: biochemical; settings: 10 μM AA, 25 mM HEPES pH 7.5, 0.01% Triton X-100, 22 °C
T1 construct: His tag; made in house
T1 sequence (P16050 1-662): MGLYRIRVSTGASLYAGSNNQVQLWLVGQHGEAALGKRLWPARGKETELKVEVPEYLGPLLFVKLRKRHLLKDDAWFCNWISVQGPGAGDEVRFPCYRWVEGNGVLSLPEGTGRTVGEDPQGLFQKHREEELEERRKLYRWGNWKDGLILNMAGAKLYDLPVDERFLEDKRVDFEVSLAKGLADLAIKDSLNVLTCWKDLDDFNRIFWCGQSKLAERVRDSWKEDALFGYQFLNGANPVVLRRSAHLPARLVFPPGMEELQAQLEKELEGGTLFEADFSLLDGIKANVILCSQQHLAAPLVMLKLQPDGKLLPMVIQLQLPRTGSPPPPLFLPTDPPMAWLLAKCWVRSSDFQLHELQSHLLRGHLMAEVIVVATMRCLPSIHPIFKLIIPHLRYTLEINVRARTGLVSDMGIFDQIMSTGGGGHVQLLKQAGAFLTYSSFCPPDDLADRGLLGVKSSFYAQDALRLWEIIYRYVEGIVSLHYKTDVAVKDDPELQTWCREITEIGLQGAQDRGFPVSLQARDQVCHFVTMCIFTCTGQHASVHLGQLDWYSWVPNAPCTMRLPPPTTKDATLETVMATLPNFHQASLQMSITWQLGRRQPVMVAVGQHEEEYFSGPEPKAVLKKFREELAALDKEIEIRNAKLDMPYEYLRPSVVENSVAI
Method: (§1) Overexpression and purification of his-tagged wild-type h12-LOX (Uniprot entry P18054), h15-LOX-1 (Uniprot entry P16050), and h15-LOX-2 (Uniprot entry O15296) were performed using nickel-affinity chromatography. The purity of h12-LOX, h15-LOX-1, and h15-LOX-2 was assessed using SDS gel as greater than 85%, and metal content was assessed with a Finnigan inductively coupled plasma mass spectrometer (ICP-MS, Thermo Fischer Scientific, San Jose, USA) via comparison with iron standard solution. Cobalt-EDTA was used as an internal standard. WT h5-LOX (UniProt entry P09917) was expressed in Rosetta 2 cells (Novagen) transformed with the pET14b-Stable-5-LOX plasmid (a gift from Marcia Newcomer of Louisiana State University) and grown in Terrific Broth containing 34 μg/mL chloramphenicol and 100 μg/mL ampicillin at 37 °C for 3.5 h, then placed at 20 °C for an additional 26 h. Cells were pelleted and resuspended in 50 mM Tris (pH 8.0), 500 mM NaCl, 20 mM imidazole with 1 μM pepstatin, 100 μM PMSF, and DNaseI (Sigma, Kanagawa, Japan). The cells were lysed in a French pressure cell and centrifuged at 40,000× g for 20 min at 4 °C. Saturated ammonium sulfate was added to achieve a final solution of 10% and inverted several times. The lysate was centrifuged at 40,000× g for 10 min at 4 °C. The pellet was discarded, and the supernatant was increased to a final concentration of 50% ammonium sulfate. The supernatant was rotated for 10 min at 4 °C then centrifuged at 40,000× g for 10 min at 4 °C. The pellet was split into 150 mg aliquots. The WT h5-LOX used for the kinetics in this work was not purified due to a dramatic loss in activity and was therefore prepared as an ammonium-sulfate precipitate.
(§2) IC50 values for each acyl-CoA were measured against h5-LOX, h12-LOX, h15-LOX-1, and h15-LOX-2. The reactions were carried out in 25 mM HEPES buffer (pH 8.00), 0.01% Triton X-100, and 10 μM AA for h12-LOX; 25 mM HEPES buffer (pH 7.5), 0.01% Triton X-100, and 10 μM AA for h15-LOX-1 and h15-LOX-2; and 50 mM HEPES buffer (pH 7.5), 100 µM EDTA, 50 mM NaCl, 200 µM ATP, and 10 μM AA for h5-LOX. IC50 reactions were implemented with h15-LOX-1 (0.125 μM), h12-LOX (0.300 μM), h15-LOX-2 (0.5 μM), and h5-LOX (∼600 nM ammonium sulfate salt) at 22 °C in a 1 cm^2 quartz cuvette containing 2 mL of the according buffer and 10 μM AA for no longer than 2 min to avoid any cleavage of the acyl-coenzyme A. Inhibitor concentrations ranging from 50 μM to 0.01 μM were used. All reactions were conducted using a Cary-UV Vis spectrophotometer (Agilent, Santa Clara, CA, USA). The fastest rates over 15 s intervals were recorded. IC50 values were obtained by determining the percent of inhibition of the enzymatic rate at ten inhibitor concentrations and plotting the rate against the inhibitor concentration, followed by a hyperbolic saturation curve fit. The saturation curve fits were performed in duplicate or triplicate, depending on the quality of the data. […] Through HPLC monitoring, we were able to determine a lack of degradation of the fatty acyl-CoAs over the first hour.

[2] = biological target: T2, h15-LOX-2 (Homo sapiens, UniProt O15296); experiment: IC50 determination against h15-LOX-2; format: biochemical; settings: 10 μM AA, 25 mM HEPES pH 7.5, 0.01% Triton X-100, 22 °C
T2 construct: His tag; made in house
T2 sequence (O15296 1-676): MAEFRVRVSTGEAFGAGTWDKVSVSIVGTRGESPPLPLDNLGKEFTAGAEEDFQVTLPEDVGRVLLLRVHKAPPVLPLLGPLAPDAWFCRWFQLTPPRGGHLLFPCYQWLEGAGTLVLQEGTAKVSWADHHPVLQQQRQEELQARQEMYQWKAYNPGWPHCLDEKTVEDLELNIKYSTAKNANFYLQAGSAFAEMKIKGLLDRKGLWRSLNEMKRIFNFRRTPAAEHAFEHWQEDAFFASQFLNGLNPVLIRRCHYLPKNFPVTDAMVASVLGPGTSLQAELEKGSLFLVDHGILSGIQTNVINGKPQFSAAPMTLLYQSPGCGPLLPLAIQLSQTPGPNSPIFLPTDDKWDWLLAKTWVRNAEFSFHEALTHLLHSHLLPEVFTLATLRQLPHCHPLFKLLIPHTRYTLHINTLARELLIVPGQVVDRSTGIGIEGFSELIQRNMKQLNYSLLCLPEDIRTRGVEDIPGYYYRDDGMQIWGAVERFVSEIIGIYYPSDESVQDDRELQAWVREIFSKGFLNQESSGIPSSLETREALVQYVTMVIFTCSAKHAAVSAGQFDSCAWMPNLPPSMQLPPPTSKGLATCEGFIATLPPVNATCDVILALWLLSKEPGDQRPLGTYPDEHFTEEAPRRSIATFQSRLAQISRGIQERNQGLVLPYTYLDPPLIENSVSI
Method: as §1, §2

Structure (SMILES) | IC50 [1] | IC50 [2] | IC50 ([2]; listed as arachidonoyl-CoA (20:4)) | IC50 ([2]; listed as palmitoleoyl-CoA (16:1)) | IC50 ([2]; listed as palmitoyl-CoA (16:0)) | IC50 ([2]; listed as ɣ-linolenoyl-CoA (18:3))
CCCCC/C=C\C/C=C\C/C=C\C/C=C\CCCC(=O)SCCNC(=O)CCNC(=O)[C@H](O)C(C)(C)COP(=O)(O)OP(=O)(O)OC[C@H]1O[C@@H](n2cnc3c(N)ncnc32)[C@H](O)[C@@H]1OP(=O)(O)O [Arachidonoyl-CoA (20:4), arachidonoyl-coenzyme A (20:4)] | > 500 µM | > 500 µM | > 100 µM | – | – | –
CC/C=C\C/C=C\C/C=C\C/C=C\C/C=C\C/C=C\CCC(=O)SCCNC(=O)CCNC(=O)C(O)C(C)(C)COP(=O)(O)OP(=O)(O)OC[C@H]1O[C@@H](n2cnc3c(N)ncnc32)[C@H](O)[C@@H]1OP(=O)(O)O (stereo partly shown) [Docosahexaenoyl CoA (22:6), docosahexaenoyl-coenzyme A (22:6)] | > 500 µM | > 500 µM | – | – | – | –
CCCCC/C=C\C/C=C\C/C=C\CCCCC(=O)SCCNC(=O)CCNC(=O)[C@H](O)C(C)(C)COP(=O)(O)OP(=O)(O)OC[C@H]1O[C@@H](n2cnc3c(N)ncnc32)[C@H](O)[C@@H]1OP(=O)(O)O [ɣ-Linolenoyl-CoA (18:3), ɣ-linolenoyl-coenzyme A (18:3)] | > 500 µM | > 500 µM | – | – | – | > 100 µM

The next lines start with the values.

IC50 [1] | IC50 [2] | IC50 ([2]; listed as arachidonoyl-CoA (20:4)) | IC50 ([2]; listed as palmitoleoyl-CoA (16:1)) | IC50 ([2]; listed as palmitoyl-CoA (16:0)) | IC50 ([2]; listed as ɣ-linolenoyl-CoA (18:3)) | Structure (SMILES)
– | > 100 µM | – | – | – | – | CCCCC/C=C\C/C=C\CCCCCCCC(=O)SCCNC(=O)CCNC(=O)[C@H](O)C(C)(C)COP(=O)(O)OP(=O)(O)OC[C@H]1O[C@@H](n2cnc3c(N)ncnc32)[C@H](O)[C@@H]1OP(=O)(O)O [Linoleoyl-CoA (18:2), linoleoyl-CoA]
39 ± 2 µM | 0.62 ± 0.06 µM | – | – | – | – | CCCCCCCC/C=C\CCCCCCCC(=O)SCCNC(=O)CCNC(=O)[C@H](O)C(C)(C)COP(=O)(O)OP(=O)(O)OC[C@H]1O[C@@H](n2cnc3c(N)ncnc32)[C@H](O)[C@@H]1OP(=O)(O)O [Oleoyl-CoA (18:1), oleoyl-coenzyme A (18:1)]
> 500 µM | > 200 µM | – | > 100 µM | – | – | CCCCCC/C=C\CCCCCCCC(=O)SCCNC(=O)CCNC(=O)[C@H](O)C(C)(C)COP(=O)(O)OP(=O)(O)OC[C@H]1O[C@@H](n2cnc3c(N)ncnc32)[C@H](O)[C@@H]1OP(=O)(O)O [Palmitoleoyl-CoA (16:1), palmitoleoyl-coenzyme A (16:1)]
> 500 µM | > 200 µM | – | – | > 100 µM | – | CCCCCCCCCCCCCCCC(=O)SCCNC(=O)CCNC(=O)[C@H](O)C(C)(C)COP(=O)(O)OP(=O)(O)OC[C@H]1O[C@@H](n2cnc3c(N)ncnc32)[C@H](O)[C@@H]1OP(=O)(O)O [Palmitoyl-CoA (16:0), palmitoyl-coenzyme A (16:0)]
4.2 ± 0.6 µM | 7.6 ± 1 µM | – | – | – | – | CCCCCCCCCCCCCCCCCC(=O)SCCNC(=O)CCNC(=O)[C@H](O)C(C)(C)COP(=O)(O)OP(=O)(O)OC[C@H]1O[C@@H](n2cnc3c(N)ncnc32)[C@H](O)[C@@H]1OP(=O)(O)O [Stearoyl-CoA (18:0), stearoyl-coenzyme A (18:0)]
